Measurements as given in patent US4115482A, “Stereospecific cis- and trans-vinylic phosphorus esters” (priority 1977, dated 1978).

Key:
[1] = target: T1, bovine cholinesterase (Bos taurus, UniProt P23795); test: Cholesterinase placeholder; assay type: biochemical; details: for Cholinesterase IC50 (50% inhibiting concentration), after oxidation: after oxidation with peracetic acid in benzene (75°, 20 minutes) to the corresponding monothiophosphate, bovine cholinesterase, 35° C., 30 minutes
T1 construct: Ellman test with acetylthiocholine
T1 sequence (P23795 31-613): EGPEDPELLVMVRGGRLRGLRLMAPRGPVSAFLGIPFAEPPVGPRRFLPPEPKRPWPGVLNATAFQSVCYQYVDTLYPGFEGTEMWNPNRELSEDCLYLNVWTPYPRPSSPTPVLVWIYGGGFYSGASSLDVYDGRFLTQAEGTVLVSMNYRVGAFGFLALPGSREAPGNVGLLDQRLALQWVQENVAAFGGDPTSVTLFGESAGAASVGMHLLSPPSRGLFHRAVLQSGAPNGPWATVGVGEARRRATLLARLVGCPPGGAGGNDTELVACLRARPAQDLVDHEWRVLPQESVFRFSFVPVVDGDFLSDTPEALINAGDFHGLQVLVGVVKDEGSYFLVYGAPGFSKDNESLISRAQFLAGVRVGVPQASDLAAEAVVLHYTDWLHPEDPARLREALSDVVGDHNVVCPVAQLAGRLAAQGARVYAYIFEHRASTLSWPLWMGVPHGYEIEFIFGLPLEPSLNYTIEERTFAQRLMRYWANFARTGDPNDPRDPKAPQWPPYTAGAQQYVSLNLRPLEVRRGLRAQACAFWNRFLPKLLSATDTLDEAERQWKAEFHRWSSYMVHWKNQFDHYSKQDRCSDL
Experimental: The insecticidal effectiveness of organophosphorus compounds is generally attributed to their inhibition of the cholinesterase enzyme. This inhibiting potency is usually expressed as the concentration of the compound which will reduce the activity of the enzyme by 50%, i.e. […]. The […] values of several cis- and trans-S-propenyl dialkyl dithiophosphates were determined to estimate the relative insecticidal potential of the geometric isomer pairs.
Test Method: To a solution of 0.2 unit of bovine cholinesterase in 2.97 ml of a buffer solution containing 11.15 g of disodium hydrogen phosphate dodecahydrate and 1.81 g of potassium dihydrogen phosphate per liter of water, 0.03 ml of a solution of the dithiophosphate adduct in benzene was added. This mixture was then incubated in a water bath at 35° C. for 30 minutes. One ml of a solution containing 100 mg of 5,5'-dithiobis-(2-nitrobenzoic acid), 100 mg of acetylthiocholine iodide, and 75 ml of the above buffer solution in sufficient water to make 200 ml was then added and the mixture again incubated in a water bath at 35° C. for 30 minutes more. The amount of inhibition of bovine cholinesterase was then determined from the absorbance of this solution at 420 millimicrons. By using a series of solutions of the test chemical at various concentrations in acetone, the concentration needed for 50% inhibition was determined.
The oxidation was carried out with peracetic acid in benzene solution at 75° for 20 minutes. After the removal of the excess peracetic acid, the benzene solution was used for enzyme inhibition as described above.
The median inhibiting concentrations for the cis- and trans-S-propenyl dimethyl and diethyl dithiophosphates are listed in Table II. Data on S-vinyl dimethyl dithiophosphate are also tabulated for comparison.

[2] = test system: two spotted spider mite; test: Systemic miticidal action on potted bean plants (soil treatment); assay type: in vivo; details: 20 ml of aqueous emulsion containing 0.05% of the chemical applied to soil, 5 days
Experimental: For this purpose, a systemic pesticide test on mites was chosen as an example.
Test Method: Potted bean plants were infested with the two spotted spider mite. The soil in the pots was then treated by applying 20 ml of aqueous emulsion containing 0.05% of the chemical. The emulsions were prepared by dissolving the cis- and the trans-compound in acetone and dispersing it in distilled water with Triton X-100. (The emulsifier is an alkylaryl polyether alcohol derived from nonylphenol and ethylene oxide). After the application of the test emulsion, the plants were held for 5 days and then the degree of mite control was rated.

Row | SMILES | Cholinesterase IC50 (50% inhibiting concentration), after oxidation [1] | cholinesterase inhibition, comparison in words ([1]; relative inhibiting potency of isomers, oxidized forms and S-vinyl analog) | degree of mite control (systemic) [2]
1 | C/C=C/SP(=S)(OCC)OCC [Example 1, trans-S-Propenyl O,O'-Diethyl Dithiophosphate] | 1.6e-07 mol/L |  | 
2 | C/C=C/SP(=S)(OC)OC [Example 4, trans-S-Propenyl O,O'-Dimethyl Dithiophosphate] | 2.8e-08 mol/L | the substitution of the trans-vinylic hydrogen by a methyl group increases the insecticidal potential | completely free from mites and nymphs
3 | C/C=C\SP(=S)(OC)OC [Example 3, cis-Propenyl O,O'-Dimethyl Dithiophosphate] | 4.1e-05 mol/L |  | there were live mites and their nymphs
4 | C=CSP(=S)(OC)OC [Reference, S-vinyl dimethyl dithiophosphate, reference compound] | 3.1 × 10^ -6 mole/liter |  | 
5 | C/C=C\SP(=S)(OCC)OCC [Example 2, cis-Propenyl O,O'-Diethyl Dithiophosphate] | 0.00018 mol/L |  | 
6 | CC=CSP(=S)(OCC)OCC | 4.4e-06 mol/L |  | 
